Patent US11174250B2, “Substituted carboxamides as inhibitors of WDR5 protein-protein binding” (PROPELLON THERAPEUTICS INC., priority 2016, dated 2021)
Read-outs that look alike come from different tables or passages of the source.

Molecular target: WDR5 protein (Homo sapiens (Human), UniProt P61964)
Experiment: Surface Plasmon Resonance (SPR) assay
Assay type: binding
Conditions: SPR; for residence time: τ=1/koff, read-out: Residence Time (t, min)
[1] = Table 1, read-out: WDR5 binding affinity (KD)
[2] = Table 2, read-out: WDR5 binding affinity SPR (KD)

Kd [1] [nM]	Kd [2] [nM]	residence time [min]	SMILES
17	17	2.3	CN1CCN(c2ccc(-c3ccc(N4CCCC4)nc3F)cc2NC(=O)c2c[nH]c(=O)cc2C(F)(F)F)CC1 [Example 22, N-(5-(2-fluoro-6-(pyrrolidin-1-yl)pyridin-3-yl)-2-(4-methylpiperazin-1-yl)phenyl)-6-oxo-4-(trifluoromethyl)-1,6-dihydropyridine-3-carboxamide]
79	79	0.56	CN1CCN(c2ccc(-c3cccc(CN4CCOCC4)c3F)cc2NC(=O)c2c[nH]c(=O)cc2C(F)(F)F)CC1 [Example 23, N-(2′-fluoro-4-(4-methylpiperazin-1-yl)-3′-(morpholinomethyl)-[1,1′-biphenyl]-3-yl)-6-oxo-4-(trifluoromethyl)-1,6-dihydropyridine-3-carboxamide]
102	102	0.94	CN1CCN(c2ccc(-c3ccccc3F)cc2NC(=O)c2c[nH]c(=O)cc2C(F)(F)F)CC1 [Example 25, N-(2′-fluoro-4-(4-methylpiperazin-1-yl)-[1,1′-biphenyl]-3-yl)-6-oxo-4-(trifluoromethyl)-1,6-dihydropyridine-3-carboxamide]
39	39	2.5	C[C@@H]1CN(c2ccc(-c3c(F)ccc(C#N)c3F)cc2NC(=O)c2c[nH]c(=O)cc2C(F)(F)F)C[C@H](C)N1C [Example 78, N-(3′-cyano-2′,6′-difluoro-4-((3S,5R)-3,4,5-trimethylpiperazin-1-yl)-[1,1′-biphenyl]-3-yl)-6-oxo-4-(trifluoromethyl)-1,6-dihydropyridine-3-carboxamide]
2.5	2.5	16.4	C[C@@H]1CN(c2ccc(-c3cc(CNC4CCCCC4)c(F)cc3F)cc2NC(=O)c2c[nH]c(=O)cc2C(F)(F)F)C[C@H](C)N1C [Example 79, N-(5′-((cyclohexylamino)methyl)-2′,4′-difluoro-4-((3S,5R)-3,4,5-trimethylpiperazin-1-yl)-[1,1′-biphenyl]-3-yl)-6-oxo-4-(trifluoromethyl)-1,6-dihydropyridine-3-carboxamide]
10	10.3	3.24	C[C@@H]1CN(c2ccc(-c3ccc(F)c(CNC4CCCCC4)c3F)cc2NC(=O)c2c[nH]c(=O)cc2C(F)(F)F)C[C@H](C)N1C [Example 83, N-(3′-((cyclohexylamino)methyl)-2′,4′-difluoro-4-((3S,5R)-3,4,5-trimethylpiperazin-1-yl)-[1,1′-biphenyl]-3-yl)-6-oxo-4-(trifluoromethyl)-1,6-dihydropyridine-3-carboxamide]
15	14.8	0.78	CN1CCN(c2ncc(-c3cc(CNC4CCCCC4)ccc3F)cc2NC(=O)c2c[nH]c(=O)cc2C(F)(F)F)CC1 [Example 85, N-(5-(5-((cyclohexylamino)methyl)-2-fluorophenyl)-2-(4-methylpiperazin-1-yl)pyridin-3-yl)-6-oxo-4-(trifluoromethyl)-1,6-dihydropyridine-3-carboxamide]
35	34.5		CN1CCN(c2ccc(-c3cc(CN4CCOCC4)ccc3Cl)cc2NC(=O)c2c[nH]c(=O)cc2C(F)(F)F)CC1 [Example 86, N-(2′-chloro-4-(4-methylpiperazin-1-yl)-5′-(morpholinomethyl)-[1,1′-biphenyl]-3-yl)-6-oxo-4-(trifluoromethyl)-1,6-dihydropyridine-3-carboxamide]
18	18	1.71	CN1CCCN(c2ccc(-c3cc(CN4CCOCC4)ccc3F)cc2NC(=O)c2c[nH]c(=O)cc2C(F)(F)F)CC1 [Example 88, N-(2′-fluoro-4-(4-methyl-1,4-diazepan-1-yl)-5′-(morpholinomethyl)-[1,1′-biphenyl]-3-yl)-6-oxo-4-(trifluoromethyl)-1,6-dihydropyridine-3-carboxamide]

Second part, the compound before the results:

SMILES	Kd [1] [nM]	Kd [2] [nM]	residence time [min]
Cc1cccc(C(=O)Nc2cc(-c3cc(CN4CCOCC4)ccc3F)ccc2N2CCN(C)CC2)c1 [Example 24, N-(2′-fluoro-4-(4-methylpiperazin-1-yl)-5′-(morpholinomethyl)-[1,1′-biphenyl]-3-yl)-3-methylbenzamide]	5030	5030	
COc1cc(C(F)(F)F)c(C(=O)Nc2cc(-c3cc(CN4CCC(N5CCOCC5)CC4)ccc3F)ccc2N2CCN(C)CC2)cn1 [Example 52, N-(2′-fluoro-4-(4-methylpiperazin-1-yl)-5′-((4-morpholinopiperidin-1-yl)methyl)-[,1′-biphenyl]-3-yl)-6-methoxy-4-(trifluoromethyl)nicotinamide]	> 200	> 200	
COc1cc(C(F)(F)F)c(C(=O)Nc2cc(-c3cc(CN4CCN(C(C)=O)CC4)ccc3F)ccc2N2CCN(C)CC2)cn1 [Example 54, N-(5′-((4-acetylpiperazin-1-yl)methyl)-2′-fluoro-4-(4-methylpiperazin-1-yl)-[1,1′-biphenyl]-3-yl)-6-methoxy-4-(trifluoromethyl)nicotinamide]	> 200	> 200	
COc1cc(C(F)(F)F)c(C(=O)Nc2cc(-c3cc(CN4CCC(F)CC4)ccc3F)ccc2N2CCN(C)CC2)cn1 [Example 55, N-(2′-fluoro-5′-((4-fluoropiperidin-1-yl)methyl)-4-(4-methylpiperazin-1-yl)-[1,1′-biphenyl]-3-yl)-6-methoxy-4-(trifluoromethyl)nicotinamide]	> 200	> 200	
COc1cc(C(F)(F)F)c(C(=O)Nc2cc(-c3cc(CN4C5COCC4C5)ccc3F)ccc2N2CCN(C)CC2)cn1 [Example 56, N-(5′-(3-oxa-6-azabicyclo[3.1.1]heptan-6-ylmethyl)-2′-fluoro-4-(4-methylpiperazin-1-yl)-[1,1′-biphenyl]-3-yl)-6-methoxy-4-(trifluoromethyl)nicotinamide]	> 200	> 200	
COc1cc(C(F)(F)F)c(C(=O)Nc2cc(-c3cc(CN4CC[C@@H](S(C)(=O)=O)C4)ccc3F)ccc2N2CCN(C)CC2)cn1 [Example 57, (R)—N-(2′-fluoro-4-(4-methylpiperazin-1-yl)-5′-((3-(methylsulfonyl)pyrrolidin-1-yl)methyl)-[1,1′-biphenyl]-3-yl)-6-methoxy-4-(trifluoromethyl)nicotinamide]	> 200	> 200	
COc1cc(C(F)(F)F)c(C(=O)Nc2cc(-c3cc(CN(C)[C@H]4CCOC4)ccc3F)ccc2N2CCN(C)CC2)cn1 [Example 58, (S)—N-(2′-fluoro-5′-((methyl(tetrahydrofuran-3-yl)amino)methyl)-4-(4-methylpiperazin-1-yl)-[1,1′-biphenyl]-3-yl)-6-methoxy-4-(trifluoromethyl)nicotinamide]	> 200	> 200	
COc1cc(C(F)(F)F)c(C(=O)Nc2cc(-c3cc(CN4CCOC(C)(C)C4)ccc3F)ccc2N2CCN(C)CC2)cn1 [Example 59, N-(5′-((2,2-dimethylmorpholino)methyl)-2′-fluoro-4-(4-methylpiperazin-1-yl)-[1,1′-biphenyl]-3-yl)-6-methoxy-4-(trifluoromethyl)nicotinamide]	> 200	> 200	
CN1CCN(c2ccc(-c3cc(CN4CCOCC4)ccc3F)cc2NC(=O)c2c[nH]c(=O)cc2C(F)(F)F)CC1COC(=O)C(C)(C)C (stereo not drawn) [Example 64, (4-(2′-fluoro-5′-(morpholinomethyl)-3-(6-oxo-4-(trifluoromethyl)-1,6-dihydropyridine-3-carboxamido)-[1,1′-biphenyl]-4-yl)-1-methylpiperazin-2-yl)methyl pivalate]	> 200	102	
CN1CCCN(c2ccc(-c3cc(CN4CCOCC4)ccc3F)cc2NC(=O)c2cn(C)c(=O)cc2C(F)(F)F)CC1 [Example 89, N-(2′-fluoro-4-(4-methyl-1,4-diazepan-1-yl)-5′-(morpholinomethyl)-[1,1′-biphenyl]-3-yl)-1-methyl-6-oxo-4-(trifluoromethyl)-1,6-dihydropyridine-3-carboxamide]	235	235	0.07
Cc1cc(C(=O)Nc2cc(-c3cc(CN4CCOCC4)ccc3F)ccc2N2CCC(N(C)C)C2)cc(C)c1F (stereo not drawn) [Example 91, N-(4-(3-(dimethylamino)pyrrolidin-1-yl)-2′-fluoro-5′-(morpholinomethyl)-[1,1′-biphenyl]-3-yl)-4-fluoro-3,5-dimethylbenzamide]	316	316	
Cc1cc(C(=O)Nc2cc(-c3cc(CN4CCOCC4)ccc3F)ccc2N2CCCN(C)CC2)cc(C)c1F [Example 92, 4-fluoro-N-(2′-fluoro-4-(4-methyl-1,4-diazepan-1-yl)-5′-(morpholinomethyl)-[1,1′-biphenyl]-3-yl)-3,5-dimethylbenzamide]	394	394	
Cc1cc(C(=O)Nc2cc(-c3cc(CN4CCOCC4)ccc3F)ccc2N2CC3CN(C)CC3C2)cc(C)c1F (stereo not drawn) [Example 94, 4-fluoro-N-(2′-fluoro-4-(5-methylhexahydropyrrolo[3,4-c]pyrrol-2(1H)-yl)-5′-(morpholinomethyl)-[1,1′-biphenyl]-3-yl)-3,5-dimethylbenzamide]	> 200	> 200	
Cc1cc(C(=O)Nc2cc(-c3cc(CN4CCOCC4)ccc3F)ccc2N2CCN(CC(F)(F)F)CC2)cc(C)c1F [Example 95, 4-fluoro-N-(2′-fluoro-5′-(morpholinomethyl)-4-(4-(2,2,2-trifluoroethyl)piperazin-1-yl)-[,1′-biphenyl]-3-yl)-3,5-dimethylbenzamide]	> 200	> 200	
O=C(Nc1cc(-c2cc(CN3CCOCC3)ccc2F)ccc1N1CCN(CC(F)(F)F)CC1)c1c[nH]c(=O)cc1C(F)(F)F [Example 97, N-(2′-fluoro-5′-(morpholinomethyl)-4-(4-(2,2,2-trifluoroethyl)piperazin-1-yl)-[,1′-biphenyl]-3-yl)-6-oxo-4-(trifluoromethyl)-1,6-dihydropyridine-3-carboxamide]	> 200	> 200	
